Measurements reported in patent US11591569B2, “Methods for epicardial differentiation of human pluripotent stem cells” (Wisconsin Alumni Research Foundation, priority 2015, dated 2023).

How the values were obtained:
Assay type in all cases: cell-based, human
[1] = tested on: hPSC-derived epicardial cells; assay: Long-term expansion of hPSC-derived epicardial cells
Method: Long-Term Maintenance of hPSC-Derived Epicardial Cells: To expand the epicardial cells, confluent cells on day 3 or 4 of differentiation were split 1:3 at a density of 0.04 to 0.08 million cells/cm^2 using Versene (Life Technologies) or Accutase and routinely passaged onto gelatin-coated plates in LaSR basal medium or RPMI/Vc/Ins medium and 0.5 μM A83-01 (Stemgent) or 2 μM SB431542 (Stemgent) with medium changed daily until the cells reached confluence. Overnight treatment of 5 μM Y27632 and 1% human recombinant albumin (Sigma-Aldrich) on single cells during passage was used to improve cell attachment and survival, but they were not required once cells attached.
Flow Cytometry Analysis: Cells were dissociated into single cells with Accutase for 10 minutes and then fixed with 1% paraformaldehyde for 20 minutes at room temperature and stained with primary and secondary antibodies (Table 1) in PBS plus 0.1% Triton X-100 and 0.5% BSA. Data were collected on a FACSCaliber flow cytometer (Beckton Dickinson) and analyzed using FlowJo. FACS gating was based on the corresponding isotype antibody control.

hPSCs = assay: Cardiac progenitor induction from hPSCs, gene expression by quantitative RT-PCR; details: 6 μM CHIR99021 at day 0 in RPMI medium, H13 hESCs
Method: Cardiac Progenitor Induction Via Modulation of Canonical Wnt Signaling: When hPSCs maintained on a SyntheMax-coated surface achieved confluence, cells were singularized with Accutase (Innovative Cell Technologies) at 37° C. for 5 minutes and then seeded onto a SyntheMax-coated cell culture dish at 250,000 cells/cm^2 in mTeSR1 or E8 supplemented with 5 μM ROCK inhibitor Y-27632 (Selleckchem) (day −3) for 24 hours. Cells were then cultured in mTeSR1 or E8, changed daily. At day 0, cells were treated with 6 μM CHIR99021 (Selleckchem) for 24 hours in RPMI medium, followed by a change with RPMI medium at day 1. 2.5-5 μM IWP2 (Tocris) was added at day 3 and removed during the medium change at day 5.
(§1) RT-PCR and Quantitative RT-PCR: Total RNA was prepared with the RNeasy mini kit (QIAGEN) and treated with DNase (QIAGEN). 1 μg RNA was reverse transcribed into cDNA via Oligo (dT) with Superscript III Reverse Transcriptase (Invitrogen). Real-time quantitative PCR was done in triplicate with iQSYBR Green SuperMix (Bio-Rad). GAPDH was used as an endogenous housekeeping control.

[2] = tested on: hPSC-derived cardiac progenitors; assay: Epicardial (WT1+) differentiation of hPSC-derived cardiac progenitors, flow cytometry at day 12; details: for cTnT+WT1+ cells: day 6 progenitors treated day 7 to day 9, day 12 flow cytometry; for WT1+ cell differentiation compared with 3 μM CHIR99021: 0.3 μM, day 7 to day 9, GiWiGi protocol, flow cytometry at day 12
Method: Epicardial Cell Generation Via Activation of Canonical Wnt Signaling: At day 6, cardiac progenitor cells were singularized with Accutase at 37° C. for 5 minutes and then seeded onto a gelatin-coated cell culture dish at 20,000-80,000 cells/cm^2 in LaSR basal medium (advanced DMEM/F12 with 100 μg/mL ascorbic acid) or RPMI/Vc/Ins medium (100 μg/mL ascorbic acid and 1 μg/mL human recombinant or bovine insulin (Sigma)) with 5 μM ROCK inhibitor Y-27632 for 24 hours. […] Data were collected on a FACSCaliber flow cytometer (Beckton Dickinson) and analyzed using FlowJo. FACS gating was based on the corresponding isotype antibody control. Pro-epicardium arises from ISL1+NKX2.5+ second heart field progenitors in vivo^1,41.

[3] = tested on: hPSC-derived epicardial cells; assay: EMT induction of hPSC-derived epicardial cells; details: 10 ng/mL bFGF, 5 ng/mL TGFβ1; for Cell morphology after treatment: H13 hESC-derived epicardial cells, day 18; for Expression of WT1 and ZO1: immunostaining; for EMT (CDH1 decreased, CDH2 and SNAIL2 increased versus untreated controls): qPCR and E-cadherin immunostaining
Method: Single Cell Passage and EMT Induction: Confluent WT1+ cells were dissociated into single cells with Accutase at 37° C. for 5 minutes and then seeded onto a gelatin-coated cell culture dish at 10,000 cells/cm^2 in LaSR basal medium supplemented with 5 μM ROCK inhibitor Y-27632 for 24 hr. After 24 hours, medium was changed to LaSR basal medium and cells were treated with TGFβ1 or bFGF (R&D Systems) as indicated. Medium was changed every 3 days until analysis.
Immunostaining Analysis: Cells were fixed with 4% paraformaldehyde for 15 minutes at room temperature and then stained with primary and secondary antibodies (Table 1) in PBS plus 0.4% Triton X-100 and 5% non-fat dry milk (Bio-Rad). Nuclei were stained with Gold Anti-fade Reagent with DAPI (Invitrogen). An epifluorescence microscope (Leica DM IRB) with a QImaging® Retiga 4000R camera was used for imaging analysis.
as §1

[4] = day 6 ISL1+NKX2.5+ progenitors treated 48 hours (day 7 to day 9), H13 hESC-derived day 12 cultures, concentrations per Table 3

**Q.** Which results are given for `Cc1cccc(-c2nn(C(=S)Nc3ccccc3)cc2-c2ccnc3ccccc23)n1` [A83-01]?
**A.** Expandability of epicardial cells from additional hPSC lines ([1]; 19-9-11 iPSC-derived epicardial cells, 0.5 μM A83-01): expandable; Expansion with retention of epithelial morphology and WT1 expression ([1]; H13 hESC-derived day 18 epicardial cells, treated 3 days, 0.5 μM): enabled expansion of hPSC-derived epicardial cells that retained polarized epithelial morphology and WT1 expression

**Q.** Which results are given for `Cc1c[nH]c(-c2cnc(NCCNc3ccc(C#N)cn3)nc2-c2ccc(Cl)cc2Cl)n1` [CHIR99021]?
**A.** Gene expression changes in the first 24 hr after addition (hPSCs): down-regulation of the pluripotency markers OCT4 and NANOG, and induction of the primitive streak like gene T; WT1+ cells ([2]; 3 μM CHIR, initial density 0.06 million cells per cm^2, LaSR basal medium, day 12): more than 95%; WT1+ cells [2, 4]: more than 85%

**Q.** What does the source list for `c1cc(-c2cnn3cc(-c4ccc(OCCN5CCCCC5)cc4)cnc23)ccn1` [dorsomorphin]?
**A.** WT1+ cells [2, 4]: about 10%; cTnT+WT1+ cells [2]: 2%

**Q.** How did the “WT1+ cells” value [2, 4] turn out when `CC1=C(/C=C/C(C)=C/C=C/C(C)=C/C(=O)O)C(C)(C)CCC1` [retinoic acid] was run?
**A.** about 10%

**Q.** And the “cTnT+WT1+ cells” value [2]?
**A.** 2%

**Q.** Which “WT1+ cell differentiation compared with 3 μM CHIR99021” value [2] does the source give for BIO-acetoxime here?
**A.** induced WT1+ cell differentiation to a similar extent as 3 μM CHIR99021

**Q.** Which “WT1+ cell differentiation compared with 3 μM CHIR99021” value [2] does the source give for CHIR98014 here?
**A.** induced WT1+ cell differentiation to a similar extent as 3 μM CHIR99021

**Q.** With “TGFβ: TGFβ pathway protein modulator (R&D Systems)” as the molecule, how does the “Cell morphology after treatment” value [3] read?
**A.** fusiform-shaped appearance

**Q.** And the “Expression of WT1 and ZO1” value [3]?
**A.** significantly decreased

**Q.** And the “EMT (CDH1 decreased, CDH2 and SNAIL2 increased versus untreated controls)” value [3]?
**A.** induced EMT

**Q.** Which “Cell morphology after treatment” value [3] does the source give for “bFGF: FGF pathway protein modulator (R&D Systems)” here?
**A.** fibroid spindle

**Q.** What about the “Expression of WT1 and ZO1” value [3] of the same molecule?
**A.** significantly decreased

**Q.** And the “EMT (CDH1 decreased, CDH2 and SNAIL2 increased versus untreated controls)” value [3]?
**A.** induced EMT

B1: Bone Morphogenetic Protein 4 (protein, UniProt P12644 293-408, looked up)
Bone morphogenetic protein 4: SPKHHSQRARKKNKNCRRHSLYVDFSDVGWNDWIVAPPGYQAFYCHGDCPFPLADHLNSTNHAIVQTLVNSVNSSIPKACCVPTELSAISMLYLDEYDKVVLKNYQEMVVEGCGCR
notes: TGFβ superfamily growth factor
**Q.** For B1, which “Cell population obtained in the presence of CHIR” value ([2]; co-treatment with CHIR (2 μM CHIR99021, FIG. 10), day 7 to day 9, day 12 flow cytometry of cTnT and WT1) is on record?
**A.** yielded an unknown population at the expense of WT1+ cells

**Q.** What about the “WT1+ cells” value [2, 4] of the same molecule?
**A.** about 10%

**Q.** What about the “cTnT+WT1+ cells” value [2] of the same molecule?
**A.** 2%
